A word on the IC50: it is the midpoint of a concentration-inhibition curve. What is called AC50 is the midpoint of the concentration-response curve, whichever way the signal moves.

Activity calls are given as the source filed them.

Assay [1] addresses T1, Orexin receptor type 2 (Homo sapiens, UniProt O43614).
T1 sequence (O43614 whole entry): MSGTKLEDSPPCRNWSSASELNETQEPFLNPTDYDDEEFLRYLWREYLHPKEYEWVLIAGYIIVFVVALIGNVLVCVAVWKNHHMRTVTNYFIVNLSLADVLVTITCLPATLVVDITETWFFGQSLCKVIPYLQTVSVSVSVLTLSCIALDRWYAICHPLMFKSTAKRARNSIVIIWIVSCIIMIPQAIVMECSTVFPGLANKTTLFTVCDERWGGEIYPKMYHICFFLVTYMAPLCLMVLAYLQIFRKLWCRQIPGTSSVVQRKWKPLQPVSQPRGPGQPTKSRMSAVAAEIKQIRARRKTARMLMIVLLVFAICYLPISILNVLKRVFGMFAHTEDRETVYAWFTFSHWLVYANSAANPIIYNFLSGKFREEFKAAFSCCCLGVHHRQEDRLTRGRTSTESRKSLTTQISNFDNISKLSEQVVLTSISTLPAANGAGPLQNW
In words: Counterscreen assay for antagonists of the orexin 1 receptor (OX1R; HCRTR1): Fluorescence-based cell-based dose response assay for antagonists of the orexin 2 receptor (OX2R; HCRTR2), run by assay provider. It is filed as functional. On the technique in general: Counterscreens check selectivity or assay interference.

Another assay deals with HeLa. Description: HeLa cell cytotoxicity, dose response, cytotoxicity control for MITF activator project, CellTiter-Glo luminescence, cherry-pick samples (AID 540259). To be noted: Homo sapiens. It is filed as functional, cell-based. On the technique in general: ATP-based viability assays read luminescence as a measure of living cells.
The next assay deals with CHO-K1. In words: Counterscreen for antagonists of the orexin 1 receptor (OX1R; HCRTR1): Homogeneous time resolved fluorescence (HTRF)-based cell-based dose response assay to identify antagonists of the parental CHO-K1 cell line. [Related pubchem assays (depositor defined):AID434989, AID435008, AID463079, AID485270, AID492963, AID492964, AID492965, AID493232, AID504699, AID504701]. Format: functional. To be noted: Cricetulus griseus.

Assay [2] can be described thus: Counterscreen for antagonists of the orexin 1 receptor (OX1R; HCRTR1): Fluorescence-based cell-based high throughput dose response assay to identify antagonists of the parental CHO cell line. [Related pubchem assays (depositor defined):AID434989, AID435008, AID463079, AID485270, AID492963, AID492964, AID492965, AID493232, AID504699, AID504701]. Format: functional.

For assay [3], the target named is T1, Orexin receptor type 2. Description: Counterscreen assay for antagonists of the orexin 1 receptor (OX1R; HCRTR1): Homogeneous Time Resolved Fluorescence (HTRF)-based cell-based dose response assay for antagonists of the orexin 2 receptor (OX2R; HCRTR2), run by assay provider. Format: functional.
In assay [4] the target is T2, Orexin/Hypocretin receptor type 1 (Homo sapiens, UniProt O43613).
T2 sequence (O43613 whole entry): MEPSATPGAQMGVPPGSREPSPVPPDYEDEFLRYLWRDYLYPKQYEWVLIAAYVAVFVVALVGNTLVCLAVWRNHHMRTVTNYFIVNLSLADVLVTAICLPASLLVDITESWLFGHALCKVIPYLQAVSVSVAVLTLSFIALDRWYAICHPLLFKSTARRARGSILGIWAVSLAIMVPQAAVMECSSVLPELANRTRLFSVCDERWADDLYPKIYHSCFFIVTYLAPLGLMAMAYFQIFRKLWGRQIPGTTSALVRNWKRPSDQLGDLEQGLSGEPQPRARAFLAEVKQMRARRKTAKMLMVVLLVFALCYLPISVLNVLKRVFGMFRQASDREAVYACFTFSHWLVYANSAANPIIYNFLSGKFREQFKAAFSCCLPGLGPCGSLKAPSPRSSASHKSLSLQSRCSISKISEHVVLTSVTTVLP
Description: Homogeneous Time Resolved Fluorescence (HTRF)-based cell-based high throughput dose response assay for antagonists of the orexin 1 receptor (OX1R; HCRTR1). [Related pubchem assays (depositor defined):AID434989, AID435008, AID463079, AID485270, AID492963, AID492964, AID492965, AID493232, AID504717, AID504718]. Format: functional. (In general: Time-resolved FRET reads energy transfer from a long-lived donor to a nearby acceptor.)

Assay [5] addresses T2, Orexin/Hypocretin receptor type 1. Description: Fluorescence-based cell-based high throughput dose response assay for antagonists of the orexin 1 receptor (OX1R; HCRTR1). [Related pubchem assays (depositor defined):AID434989, AID435008, AID463079, AID485270, AID492963, AID492964, AID492965, AID493232, AID504717, AID504718]. Format: functional.
The target in the next assay is Phospholipase A2 (Homo sapiens, UniProt P04054). It is filed as functional.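 Further: confirmatory dose-response counterscreen on phospholipase A2, testing hits that came from an ultra-high-throughput screen for ATG4B inhibitors.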
Sequence of Phospholipase A2 (P04054 whole entry): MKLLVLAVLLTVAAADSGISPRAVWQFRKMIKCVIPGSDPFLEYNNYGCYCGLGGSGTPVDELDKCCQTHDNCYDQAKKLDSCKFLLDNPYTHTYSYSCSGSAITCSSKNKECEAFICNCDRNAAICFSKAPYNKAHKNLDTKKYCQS
A further assay has as its target T3, Cysteine protease ATG4B (Homo sapiens, UniProt Q9Y4P1).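 Further: Fluorescence-based dose-response confirmation assay measuring inhibition of ATG4B activity.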
T3 sequence (Q9Y4P1 whole entry): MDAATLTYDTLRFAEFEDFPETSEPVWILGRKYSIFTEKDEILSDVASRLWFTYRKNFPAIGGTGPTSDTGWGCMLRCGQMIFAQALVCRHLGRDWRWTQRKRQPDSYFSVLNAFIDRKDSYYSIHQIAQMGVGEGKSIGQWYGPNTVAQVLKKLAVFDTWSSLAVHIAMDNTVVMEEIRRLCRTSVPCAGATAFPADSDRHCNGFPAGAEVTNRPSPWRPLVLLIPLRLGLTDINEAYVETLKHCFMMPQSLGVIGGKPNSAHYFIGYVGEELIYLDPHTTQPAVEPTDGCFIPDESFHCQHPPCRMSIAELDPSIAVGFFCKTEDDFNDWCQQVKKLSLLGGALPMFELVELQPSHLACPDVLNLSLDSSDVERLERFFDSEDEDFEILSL
It is filed as functional.

The next assay concerns the target T4, Caspase-3 (Homo sapiens, UniProt P42574).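 Further: Dose-response selectivity test against caspase-3 for candidate inhibitors of sentrin-specific proteases (SENPs).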
T4 sequence (P42574 whole entry): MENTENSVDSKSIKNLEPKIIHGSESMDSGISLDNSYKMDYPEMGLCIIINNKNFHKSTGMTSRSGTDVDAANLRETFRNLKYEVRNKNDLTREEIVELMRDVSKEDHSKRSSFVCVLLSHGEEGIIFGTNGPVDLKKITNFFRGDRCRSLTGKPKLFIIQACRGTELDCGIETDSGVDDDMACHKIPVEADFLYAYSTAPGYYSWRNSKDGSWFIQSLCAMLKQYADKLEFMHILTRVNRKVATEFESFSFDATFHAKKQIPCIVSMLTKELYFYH
It is filed as functional.

The target of assay [6] is T5, Sentrin-specific protease 7 (Homo sapiens, UniProt Q9BQF6).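 Further: Luminescence-based dose-response confirmation of ultra-high-throughput screening hits, measuring inhibition of SENP7.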
T5 sequence (Q9BQF6 whole entry): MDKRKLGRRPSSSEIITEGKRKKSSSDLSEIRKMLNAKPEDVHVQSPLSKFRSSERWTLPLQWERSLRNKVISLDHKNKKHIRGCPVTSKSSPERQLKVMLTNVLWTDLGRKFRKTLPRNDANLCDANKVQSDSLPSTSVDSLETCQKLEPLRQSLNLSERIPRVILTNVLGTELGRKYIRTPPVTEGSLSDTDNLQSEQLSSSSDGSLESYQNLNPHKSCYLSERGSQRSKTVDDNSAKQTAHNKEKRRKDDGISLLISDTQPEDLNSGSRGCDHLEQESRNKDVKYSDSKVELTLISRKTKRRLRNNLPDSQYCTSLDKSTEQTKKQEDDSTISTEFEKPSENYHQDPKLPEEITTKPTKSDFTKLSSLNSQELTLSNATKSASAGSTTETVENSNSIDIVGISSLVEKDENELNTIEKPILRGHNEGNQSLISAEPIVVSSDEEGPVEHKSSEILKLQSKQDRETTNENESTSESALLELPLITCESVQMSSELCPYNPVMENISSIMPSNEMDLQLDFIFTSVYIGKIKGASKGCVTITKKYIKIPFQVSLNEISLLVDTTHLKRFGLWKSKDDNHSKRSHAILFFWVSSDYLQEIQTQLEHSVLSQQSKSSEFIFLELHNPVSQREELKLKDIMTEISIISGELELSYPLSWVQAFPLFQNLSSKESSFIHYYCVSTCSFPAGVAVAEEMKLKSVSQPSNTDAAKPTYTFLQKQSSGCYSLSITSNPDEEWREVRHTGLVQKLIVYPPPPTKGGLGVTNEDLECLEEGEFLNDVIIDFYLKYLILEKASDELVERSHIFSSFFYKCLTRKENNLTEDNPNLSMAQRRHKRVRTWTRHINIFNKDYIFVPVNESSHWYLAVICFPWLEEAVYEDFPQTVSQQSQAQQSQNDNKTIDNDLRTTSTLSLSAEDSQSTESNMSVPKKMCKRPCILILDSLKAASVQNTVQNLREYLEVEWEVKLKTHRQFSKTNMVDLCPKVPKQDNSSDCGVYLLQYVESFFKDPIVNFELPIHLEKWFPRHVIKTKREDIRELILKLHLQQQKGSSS
Format: functional.

For assay [7], the target named is T6, Sentrin-specific protease 6 (Homo sapiens, UniProt Q9GZR1).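 Further: Luminescence-based dose-response confirmatory assay of SENP6 inhibition, following up an ultra-high-throughput screen.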
T6 sequence (Q9GZR1 whole entry): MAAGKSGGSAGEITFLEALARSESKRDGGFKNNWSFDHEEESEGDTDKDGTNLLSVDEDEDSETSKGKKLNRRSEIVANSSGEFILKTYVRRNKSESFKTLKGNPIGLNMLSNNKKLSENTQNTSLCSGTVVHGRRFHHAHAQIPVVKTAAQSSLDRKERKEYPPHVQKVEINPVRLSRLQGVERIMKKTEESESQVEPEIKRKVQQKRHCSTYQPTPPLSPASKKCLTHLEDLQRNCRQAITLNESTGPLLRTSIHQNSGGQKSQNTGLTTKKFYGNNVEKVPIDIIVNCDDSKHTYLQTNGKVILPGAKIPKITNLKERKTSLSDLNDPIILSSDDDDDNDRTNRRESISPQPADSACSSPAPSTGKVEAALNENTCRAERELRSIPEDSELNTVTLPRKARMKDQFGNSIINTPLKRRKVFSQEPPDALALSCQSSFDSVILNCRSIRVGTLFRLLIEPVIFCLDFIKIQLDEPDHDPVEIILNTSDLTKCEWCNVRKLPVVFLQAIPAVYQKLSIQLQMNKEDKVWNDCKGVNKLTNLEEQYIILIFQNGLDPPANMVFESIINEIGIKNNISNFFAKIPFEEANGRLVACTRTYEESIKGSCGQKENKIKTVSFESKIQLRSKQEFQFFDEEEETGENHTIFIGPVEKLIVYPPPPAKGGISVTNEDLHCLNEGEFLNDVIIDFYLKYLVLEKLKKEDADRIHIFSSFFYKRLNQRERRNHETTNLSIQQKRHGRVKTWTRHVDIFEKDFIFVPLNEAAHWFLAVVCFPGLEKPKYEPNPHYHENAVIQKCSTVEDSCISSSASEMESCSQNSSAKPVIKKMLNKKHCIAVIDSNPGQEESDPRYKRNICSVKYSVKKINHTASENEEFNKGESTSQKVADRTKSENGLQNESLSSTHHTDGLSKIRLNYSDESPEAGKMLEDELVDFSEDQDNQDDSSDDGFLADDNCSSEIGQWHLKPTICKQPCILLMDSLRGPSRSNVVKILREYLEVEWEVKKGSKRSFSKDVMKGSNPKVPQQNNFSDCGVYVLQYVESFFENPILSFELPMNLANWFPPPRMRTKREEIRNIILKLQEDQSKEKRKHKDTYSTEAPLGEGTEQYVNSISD
It is filed as functional.

For assay [8], the target named is T7, Sentrin-specific protease 8 (Homo sapiens, UniProt Q96LD8).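 Further: luminescence read-out of SENP8 inhibition, dose-response confirmation following an ultra-high-throughput screen.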
T7 sequence (Q96LD8 whole entry): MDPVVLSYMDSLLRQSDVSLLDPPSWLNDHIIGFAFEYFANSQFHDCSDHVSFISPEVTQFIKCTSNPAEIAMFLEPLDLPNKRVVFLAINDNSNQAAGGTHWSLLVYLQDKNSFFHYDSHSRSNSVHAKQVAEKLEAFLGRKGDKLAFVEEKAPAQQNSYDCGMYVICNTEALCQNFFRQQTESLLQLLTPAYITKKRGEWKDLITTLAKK
Format: functional.

Regarding `COc1cccc(-c2cc(C(=O)Nc3ccccc3SC)no2)c1`, the IC50 at Orexin receptor type 2 [1] is > 88.8 µM (inactive); with CHO-K1, > 66.2 µM (inactive); in [2], > 49.7 µM (inactive); on Orexin receptor type 2 [3] it was > 50 µM (inactive); in [4] it was 1.91 µM (active); in assay [5], 3.59 µM (active). The AC50 in the assay on HeLa is 97.5 µM (active).

For the compound `Cc1nc2cc(-c3nc4ccccc4o3)ccc2[nH]1`, the IC50 at Orexin receptor type 2 [1] was > 88.8 µM (inactive); with CHO-K1 it was > 66.2 µM (inactive); in assay [2], > 49.8 µM (inactive); at Orexin receptor type 2 [3], > 50 µM (inactive); in assay [4], 1.06 µM (active); in assay [5] it was 6.1 µM (active).

Regarding `COc1ccc(Cl)cc1-n1c(=S)sc2c(O)nc(SCC(=O)NCCC(C)C)nc21`, the IC50 at Phospholipase A2 was 13.8 µM (active); on Cysteine protease ATG4B it was 19.5 µM (active).

Regarding `O=C(Nc1nnc(CCc2ccccc2)s1)c1ccccc1F`, the 50% inhibitory concentration (IC50) on Caspase-3 was 18.9 µM (active); in assay [6], 16.8 µM (active); in assay [7] it was > 100 µM (inactive); in assay [8], > 100 µM (inactive).

In the case of `Cc1c(NS(=O)(=O)c2cccc(C(=O)OCC(=O)N(C)C3CCCCC3)c2)c(=O)n(-c2ccccc2)n1C`, the IC50 at Orexin receptor type 2 [1] was 1.2 µM (active); in the assay with CHO-K1, > 66.2 µM (inactive); in [2] it was > 49.7 µM (inactive); on Orexin receptor type 2 [3], 0.8 µM (active); in assay [4], 0.142 µM (active); in [5] it was 2.42 µM (active).

For the compound `O=C(N/N=C/C(Br)=C\c1ccccc1)c1cccs1`, the IC50 was 31.6 µM (active) on Caspase-3, 5.94 µM (active) in [6], > 100 µM (inactive) in assay [7] and > 100 µM (inactive) in assay [8].

Turning to `CCOC(=O)c1c(C)[nH]c(C(=O)OCC(=O)c2ccccc2)c1C`, the IC50 on Caspase-3 is 24.3 µM (active); in assay [6] it was 7.72 µM (active); in assay [7] it was 24.4 µM (active); in [8], 26.4 µM (active).

For `Cc1oc(-c2ccccc2Cl)nc1C[S+]([O-])CC(=O)NCc1ccccc1Cl` (stereo not given), the IC50 at Phospholipase A2 is 7.47 µM (active); at Cysteine protease ATG4B it was 16.8 µM (active).
